Tests used:
Assay in all cases: relative viability (nuclei count vs DMSO), 5 days (fraction); higher = more cells survive
[1] = compound: CCOC1=CC=CC=C1N=NC2=C(NN(C2=O)C3=NC(=CS3)C4=CC=CC=C4)C [BAM7] + CC(=O)Nc1cccc(-n2c(=O)n(C3CC3)c(=O)c3c(Nc4ccc(I)cc4F)n(C)c(=O)c(C)c32)c1 [Trametinib] (partner 0.02 µM)
In short: (§1)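 Relative viability divides the nuclei count in treated wells by that in vehicle wells. Lung cancer cell lines were seeded in 1536-well plates, dosed by pin tool the next day, and fixed and stained after 5 days in one step with final 0.05% Triton X-100, 1% formaldehyde and 1 ug/ml Hoechst. Dosing was a single drug or a fixed anchor-drug dose plus five library-drug doses (not always all listed) in √10 steps, and values are medians of duplicate plates imaged at 4×.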

[2] = compound: CCOC1=CC=CC=C1N=NC2=C(NN(C2=O)C3=NC(=CS3)C4=CC=CC=C4)C [BAM7] + CC(C)C[C@H](NC(=O)[C@H](Cc1ccccc1)NC(=O)c1cnccn1)B(O)O [Bortezomib] (partner 0.002 µM)
In short: as §1

[3] = compound: CCn1c(-c2nonc2N)nc2c(C#CC(C)(C)O)ncc(OC[C@H]3CCCNC3)c21 + CC1(C)CCC(c2ccc(Cl)cc2)=C(CN2CCN(c3ccc(C(=O)NS(=O)(=O)c4ccc(N[C@H](CCN5CCOCC5)CSc5ccccc5)c(S(=O)(=O)C(F)(F)F)c4)cc3)CC2)C1 [Navitoclax] (partner 0.5 µM)
In short: as §1

[4] = compound: CCn1c(-c2nonc2N)nc2c(C#CC(C)(C)O)ncc(OC[C@H]3CCCNC3)c21 + Cc1cc(Nc2cc(N3CCN(C)CC3)nc(Sc3ccc(NC(=O)C4CC4)cc3)n2)n[nH]1 [Tozasertib] (partner 0.1 µM)
In short: as §1

Cell Line: UMC-11
- relative viability ([1]; first compound 0.5 µM): 0.694
- relative viability ([1]; first compound 5 µM): 0.83
- relative viability ([1]; first compound 15.81 µM): 0.728
- relative viability ([1]; first compound 50 µM): 0.71
- relative viability ([2]; first compound 0.5 µM): 0.78
- relative viability ([2]; first compound 5 µM): 0.89
- relative viability ([2]; first compound 15.81 µM): 0.67
- relative viability ([2]; first compound 50 µM): 0.905
- relative viability ([3]; first compound 0.01 µM): 0.323
- relative viability ([3]; first compound 0.03162 µM): 0.288
- relative viability ([3]; first compound 0.1 µM): 0.323
- relative viability ([3]; first compound 0.3162 µM): 0.29
- relative viability ([3]; first compound 1 µM): 0.3
- relative viability ([4]; first compound 0.01 µM): 0.198
- relative viability ([4]; first compound 0.03162 µM): 0.209
- relative viability ([4]; first compound 0.1 µM): 0.194
- relative viability ([4]; first compound 0.3162 µM): 0.201
- relative viability ([4]; first compound 1 µM): 0.197

Source: the supplement of paper PMC10307832
